Square brackets hold non-standard residues; d marks the D form. Ends that are not written are not given here. Stearyl = stearyl group covalently linked to the N-terminus; Aun = NCCCCCCCCCCC(=O)O; βAla = NCCC(=O)O

In one test the test system is mice. Nature of the test: In vivo delivery of pGL4 plasmid DNA, intravenous administration, bioluminescence imaging. As to conditions: 5 μg pGL4 plasmid; for increase of luciferase expression / efficiency relative to ADGN-100: all / different tissues. How it is done:
FIGS. 6A-6C show the potency of ADGN-peptide variants for in vivo delivery of Luciferase expressing plasmid pGL4 via intravenous administration in mice. ADGN-peptide/pGL4 particles containing 5 μg plasmid DNA were formed in sterile water, and then diluted in 5% sucrose. Mice received IV injection of 100 μl ADGN-peptide/plasmid complexes. pGL4 Luciferase expression was monitored by bioluminescence imaging after 12 h, 24h, 48h and 72h. […] Results were then expressed as values relative to day 0.
Stable ADGN-peptides/pGL4.11 DNA were evaluated for in vivo delivery of Luciferase mRNA via intravenous and intramuscular administrations. Animals were treated with single dose of pGL4.11 plasmid DNA of 5 μg. via IV and 2.5 μg via intramuscular administration.
pGL4.11 DNA plasmid (5 μg) in sterile water (GIBCO) were mixed with ADGN peptide (sterile water), volume for each sample was adjusted to 100 μl, with sterile water containing 5% Sucrose. Samples were mixed gently with vortex for 1 minute at low speed and incubated for 30 min at room temperature. Samples were filtered on 0.45 μm PES filters prior administration. For IV administration Mice received 100 μl IV injection of either ADGN-106/pGL4, ADGN-100/pGL4, ADGN-100RI/pGL4, ADGN-100-stearyl/PGL4, ADGN-100Hydro1/PGL4, ADGN-100Hydro2/PGL4, ADGN100 Hydro6/PGL4 or ADGN/PGL4 complexes containing 10% or 20% of ADGN-100PEG (3 animals per group). As control, mice from group 3 (2 animals per group) received IV injection of 100 μl of naked pGL4 plasmids (5 μg).
Luciferase expression was monitored by bioluminescence. Bioluminescence imaging was performed after 12, 24, 48 and 72 hrs. Mice received an i.p. injection of 150 μg/g luciferin for noninvasive bioluminescence imaging (IVIS Kinetic; PerkinElmer, Waltham, MA, USA).

A further test deals with 293T cells. Put plainly: Cellular delivery of pGL4 plasmid DNA expressing Luciferase, luciferase expression at 72 hrs. Format: cell-based. Conditions: for reduction of efficiency / luciferase expression in the presence of serum: complexes incubated 3 hrs in 25% serum prior transfection; for reduction of efficiency / luciferase expression in the presence of serum / reduction of efficiency / luciferase expression in heparan sulfate: pGL4 plasmid; for reduction of efficiency / luciferase expression in heparan sulfate: complexes incubated 3 hrs with heparan sulfate prior transfection; for reduction of ADGN-100 efficiency by modification / luciferase expression: 0.15 μg pGL4 plasmid; for reduction of ADGN-100 efficiency by modification: absence of serum or heparan sulfate. How it is done: FIGS. 2A-2C show luciferase expression in 293T cells treated with ADGN-peptide/pGL4 plasmid DNA complexes. 293T cells cultured in 48 well plates were transfected with ADGN-peptide nanoparticles. ADGN-100, ADGN-106, ADGN-100RI, ADGN-106RI, ADGN-100 Stearyl, ADGN-Hydro1, ADGN-Hydro2, ADGN-Hydro3, ADGN-Hydro4, ADGN-Hydro5, and ADGN-Hydro6 containing 0.17 μg pGL4 plasmid DNA were formed in sterile water, diluted in sterile water containing 5% Sucrose. ADGN-peptide nanoparticles were evaluated prior (FIG. 2A) and after filtration with 0.45 μm PES filters (FIG. 2B). FIG. 2C impact of peGylated ADGN-100 on the transfection efficiency. pGL4 luc plasmid (0.15 μg) were associated to ADGN-100 solution containing 5 to 50% of ADGN-100-PEG or to ADGN-100PEG. ADGN/pGL4 plasmid DNA complexes were incubated for 3 hrs in the presence of either 25% serum or heparan sulfate prior transfection. Luciferase expression was monitored 72 hours post transfection and results were reported as RLU (luminescence):mg of protein.
Complex formation with plasmid DNA. The following protocols were used for the transfection of 2-5 106 Cells or Cells at confluency of about 70-80% cultured in 24 well plates. ADGN peptide/plasmid DNA pGL4 particles were prepared at a 20:1 molar ratio of ADGN-Peptide/pGL4. using (0.2 μg). PGL4 plasmid (0.15 μg) was diluted in 20 μl of sterile water (GIBCO) at room temperature. 10 μl Final Peptide Solution was added to obtain a total volume of 20 μl. The volume was adjusted to 50 μl with sterile water and was mixed gently with vortex 1 min low speed and incubated 30 min at room temperature. Then the volume was made up to 100 μl by adding sterile water containing 5% sucrose, and the solution was mixed gently with vortex 1 min low speed and incubate 5 min at 37° C. and then was proceeded to cell transfection.
Transfection protocol. Protocol is reported for 24 well plate format. Cells were cultured in Dulbecco's Modified Eagle's Medium (DMEM), supplemented with 2 mM glutamine, 1% antibiotics (streptomycin 10,000 μg/mL, penicillin, 10,000 IU/mL) and 10% (w/v) foetal calf serum (FCS), at 37° C. in a humidified atmosphere containing 5% CO2. 24 well plates seeded with 150,000 cells the day prior to transfection were grown to 50-60% confluence and set up to be at about 70% confluences at the time of transfection. Before transfection, cells were washed twice with DMEM. Cells were then overlaid with 0.1 ml of ADGN-peptide/cargo complex solution containing 0.25 μg mRNA, 0.15 μg plasmid DNA or 10-25 nM siRNA, mixed gently, and incubated for 10 min at 37° C. 0.2 mL of fresh DMEM, were added and cells were incubated for 20 min at 37° C. 1 mL of complete DMEM containing 15% FCS were then added in order to reach a final FCS concentration of 10%, without removing the overlay of ADGN-peptide/cargo complexes. Cells were returned to the incubator (37° C., 5% CO2) and 72 hrs post transfection.
ADGN-peptides were evaluated for cellular delivery of pGL4 plasmid DNA expressing Luciferase in 293T cells. Luc pGL4 plasmid (0.15 μg) in sterile water (GIBCO) were mixed with ADGN-100, ADGN-100RI, ADGN-106, ADGN-106RI, ADGN-100 Stearyl, ADGN-100Hydro1, ADGN-100Hydro2, ADGN-100Hydro4, ADGN-100Hydro3, ADGN-100Hydro5 and ADGN-100Hydro6. ADGN-peptide/mRNA complexes were filtered with 0.45 μm PES filter. In order to evaluate the stability of the ADGN/pGL4 plasmid complexes in high serum and cell culture conditions, the complexes were incubated for 3 hrs in the presence of either 25% serum or heparan sulfate prior transfection, then 293T cells were transfected and Luciferase expression was monitored at 72 hrs.

Turning to “Ac-GYVS-(G)4-KWRSALWRWRLWRVRSWSR-NH2 (Ac-GYVSGGGGKWRSALWRWRLWRVRSWSR-NH2) [ADGN-100 hydro-2]”, the “luciferase expression and tissues” value in the test on mice is recorded as “negligible luciferase expression”. Moreover, in the test on 293T cells, the “reduction of efficiency / luciferase expression in the presence of serum” value was “do not significantly improved transfection” and the “reduction of efficiency / luciferase expression in heparan sulfate” value is “do not significantly improved transfection”.

In the case of “Ac-GYVS-Aun-KWRSALWRWRLWRVRSWSR-NH2 (Ac-GYVS[Aun]KWRSALWRWRLWRVRSWSR-NH2; SMILES CC(=O)NCC(=O)N[C@@H](Cc1ccc(O)cc1)C(=O)N[C@H](C(=O)N[C@@H](CO)C(=O)NCCCCCCCCCCC(=O)N[C@@H](CCCCN)C(=O)N[C@@H](Cc1c[nH]c2ccccc12)C(=O)N[C@@H](CCCNC(=N)N)C(=O)N[C@@H](CO)C(=O)N[C@@H](C)C(=O)N[C@@H](CC(C)C)C(=O)N[C@@H](Cc1c[nH]c2ccccc12)C(=O)N[C@@H](CCCNC(=N)N)C(=O)N[C@@H](Cc1c[nH]c2ccccc12)C(=O)N[C@@H](CCCNC(=N)N)C(=O)N[C@@H](CC(C)C)C(=O)N[C@@H](Cc1c[nH]c2ccccc12)C(=O)N[C@@H](CCCNC(=N)N)C(=O)N[C@H](C(=O)N[C@@H](CCCNC(=N)N)C(=O)N[C@@H](CO)C(=O)N[C@@H](Cc1c[nH]c2ccccc12)C(=O)N[C@@H](CO)C(=O)N[C@@H](CCCNC(=N)N)C(N)=O)C(C)C)C(C)C) [ADGN-100 hydro-6]”, in the test with mice, the “luciferase expression and tissues” value was “mainly observed in the liver and at lower level in the lung and the kidney”; the “increase of luciferase expression / efficiency relative to ADGN-100” value came out at 3.4 fold. Besides, the “reduction of ADGN-100 efficiency by modification” value (from here on “reduction of ADGN-100 efficiency”) in the test on 293T cells is “do not affected”.

Turning to “Stearyl-βA-KWRSALWRWRLWRVRSWSR-NH2 (Stearyl-[βAla]KWRSALWRWRLWRVRSWSR-NH2; not fully specified; printed as Stearyl-βA-KWRSALWRWRLWRVRSWSR-NH2) [ADGN-100 Stearyl]”, in the test on mice, the “luciferase expression and tissues” value was “mainly observed in the liver and at lower level in the lung and the kidney”; the “increase of luciferase expression / efficiency relative to ADGN-100” value worked out at 2.7 fold. Besides, in the test on 293T cells, the “reduction of ADGN-100 efficiency” value was “do not affected”.

Take “akwllrwlsrwlrwlarwlr ([dA][dK][dW][dL][dL][dR][dW][dL][dS][dR][dW][dL][dR][dW][dL][dA][dR][dW][dL][dR]; also: retro-inverso) [ADGN-106-RI]”: the luciferase expression result in the test on 293T cells was “poor luciferase expression”.

For “rswsrvrwlrwrwgasrwk ([dR][dS][dW][dS][dR][dV][dR][dW][dL][dR][dW][dR][dW]G[dA][dS][dR][dW][dK]; also: retro-inverso) [ADGN-100-RI]”, in the test on mice, the “luciferase expression and tissues” value was “mainly observed in the liver and at lower level in the lung and the kidney”; the “increase of luciferase expression / efficiency relative to ADGN-100” value was 4 fold. Also, in the test on 293T cells, the “reduction of ADGN-100 efficiency” value is on record as “do not affected”, the “reduction of efficiency / luciferase expression in the presence of serum” value is reported as 25% and the “reduction of efficiency / luciferase expression in heparan sulfate” value is given as “less than 10%”.

Regarding “βAKWRSAGWRWRLW RVRSWSR (AKWRSAGWRWRLWRVRSWSR; N-terminal beta-alanine; VARIANT 1 beta-A) [ADGN-100]”, the “luciferase expression and tissues” value in the test with mice was “mainly observed in the liver and at lower level in the lung and the kidney”. For the same substance, in the test with 293T cells, the luciferase expression entry is on record as “high level of luciferase expression”, the “reduction of efficiency / luciferase expression in the presence of serum” value was 90% and the “reduction of efficiency / luciferase expression in heparan sulfate” value came out at 50%.

On to “βALWRALWRLWRSLWRLLWKA ([βAla]LWRALWRLWRSLWRLLWKA) [ADGN-106]”, for which, in the test with mice, the “luciferase expression and tissues” value is reported as “no or minimal expression”. In addition, the luciferase expression result in the test on 293T cells is listed as “poor luciferase expression”.

For the origin of these results see patent US12357695B2, “Peptides and nanoparticles for intracellular delivery of molecules” (AADIGEN, LLC, priority 2019, dated 2025).
